# According to US20240066135A1, “DRUG CONJUGATES AND USES THEREOF” (SUPERTRANS MEDICAL LTD, priority 2020, published 2024):
# Where two headings read alike, the source gives them in different places.
# Columns and labels:
# HepG2 cell cytotoxicity = assay type: cell-based; details: human, HepG2 cells; FBS-deficient media
# [1] = PK profiles in mice, IV vs SC administration; assay type: in vivo; details: IV 10 mg/kg, SC 20 mg/kg
# Description: FIG. 11 illustrates the feasibility of adaptation of V-r as a low-dose therapy to treat E. coli-associated cUTIs via sub-cutaneous administration.
# Adaptation of V-r as a low-dose therapy to treat E. coli-associated cUTIs via sub-cutaneous administration was further investigated. Vancomycin can only be given by IV infusion therapy to treat systemic infections. Due to the very low dose therapy of V-r, additional modes of administration of the drug can be pursued besides IV administration pending retention of high bioavailability. In mice, the exposure of V-r (measured by the AUC) following sub-cutaneous administration was essentially 100% of that afforded by IV administration (see FIG. 11). […] Such a finding is critically important for hospitalized cUTIs (and other infections) whereby the SC route might offer a “go-home sooner” of patients and thus early discharge from the hospital for continued low dose V-r therapy from outpatient departments or within the clinical community settings. Such an approach facilitates the practice of prudent antimicrobial stewardship.
# Red blood cell lysis = assay type: cell-based; details: human, human erythrocytes; FBS-deficient media
# E. coli ATCC 25922 [2] = assay: 9 h thigh muscle infection model in neutropenic mice; assay type: in vivo, CD-1 mice
# Description: Using a screening-based strategy, preliminary proof-of-concept studies with V-r employed an abbreviated 9 h thigh muscle infection model in male CD-1 mice rendered neutropenic. To that end, E. coli ATCC 25922 was inoculated at 9.7×10^4 CFUs into both thigh muscles per mouse (n=5 per experimental group). V-r was administered q2h SC (110-880 mg/kg total dose) starting 1 h post-infection. At 9 h, thigh homogenates were prepared and CFUs were enumerated following culture on CLED agar.
# [3] = Plasma protein binding, human; assay type: in vitro ADME; details: read-out: PPB, % bound, human (converted)
# [4] = for Cl / Vd: CD-1 mice
# E. coli UTI89 = assay: 24 h thigh muscle infection model in neutropenic mice; assay type: in vivo, CD-1 mice
# Description: FIG. 4 illustrates the efficacy of V-r in reducing E. coli UTI89 bacterial burden in a 24 h thigh muscle infection model in neutropenic CD-1 mice.
# In a 24 h thigh muscle infection model, E. coli UTI89 was inoculated at 7.8×10^4 CFU into one thigh muscle per mouse (n=5-8/group) and treated with V-r (total dose of […]) using a q6h dosing regimen from 1 h post-infection. […] Overall, V-r caused a ˜4 to 7.5 log10 reduction in bacterial burden, as compared to vehicle control, over the entire dose range.
# A. baumannii = assay: MIC testing, A. baumannii; assay type: cell-based; details: Acinetobacter baumannii
# Description: (§1) Susceptibility testing was performed based on Clinical and Laboratory Standards Institute (CLSI) guidelines M07-A11 and M100-S29. All bacterial strains were recovered from long-term storage (−80° C.) and cultured on nutrient agar (NA) at 37° C. under aerobic conditions for approximately 20 h, except E. coli ATCC BAA-2469 that was recovered from long-term storage on nutrient agar before further passaging onto nutrient agar+25 μg/mL imipenem (according to ATCC guidelines). Minimum inhibitory concentration (MIC) assays were performed in BD non cation adjusted Mueller-Hinton broth (MHB) in 96-well flat-bottomed polystyrene plates (Corning #3370). Test articles and comparator antibiotics were prepared in sterile water to a concentration of 5.12 mg/mL. For each antibiotic stock, 2× top concentrations of test compounds and comparators were prepared in the appropriate growth medium and added to well 1 of a 96-well plate. Serial 1:1 dilutions were performed from columns 1-11 (changing tips at each dilution step); column 12 served as a positive (growth) control. A negative (sterility) control was set up in available spare wells. A suspension of each strain was prepared in sterile phosphate-buffered saline (PBS) to a density equivalent to a 0.5 McFarland standard. […]
# (§2) MICs were determined using standard methodologies as previously described. […]
# [5] = for AUC: mice
# [6] = hRPTEC biomarkers cytotoxicity screen; assay type: cell-based; details: human, human renal proximal tubular epithelial cells (hRPTEC); cell count, nuclear size, DNA structure, mitochondrial mass and membrane potential, phospholipidosis, glutathione content
# [7] = system: E. coli UNT057-1 (CTX-M-15); assay: Complicated urinary tract infection (cUTI) model
# Description: Female C3H/Hej mice were placed on a 5% glucose water starting 6 days prior to infection and then for the remainder of the study. The complicated urinary tract infection (cUTI) model was established via trans-urethral injection of the bacterial inoculum. Mice were anesthetized with Ketamine HCL at 40 mg/kg body weight and Xylazine at 6 mg/kg body weight in 0.15 ml PBS injected intra-peritoneally. Using a dissection scope (10×), the urethral orifice was located and a tapered PE10 catheter (attached to MRE40 tubing and a 23 G blunt hub syringe) was inserted and 0.05 ml of the prepared inoculum slowly injected. […] E. coli UNT057-1 (CTX-M-15) strain was used for the cUTI model and inoculum grown in Tryptic soy broth (TSB) to 1.0×10^10 CFU/ml suspension. […] A positive control of meropenem was given at 300 mg/kg q12h by sub-cutaneous administration for a total of 3 days. All treatment groups consisted of 10 animals with CFU (kidneys, bladder and urine) bacterial counts at 7 days post-infection used as the endpoint for efficacy. At 7 days post-infection, urine was collected from mice into 1.5 ml sterile tubes and then mice were euthanized. Kidneys and bladders were homogenized, and the homogenates and urine were serially diluted in 1×PBS and plated onto Brain heart infusion and 0.5% charcoal agar. Agar plates were incubated at 37° C., and colony counts were recorded the following day.
# GPB = assay: MIC testing, GPB; assay type: cell-based; details: FIG. 2
# Description: as §1, §2
# [8] = Thermodynamic solubility in saline; assay type: physicochemical; details: saline or isotonic, thermodynamic from solid; read-out: TD solubility in saline
# in vivo [9] = details: male, CD-1, mouse, plasma, sc
# in vivo [10] = details: beagle, dog, iv, 25 mg/kg
# LogD (Octanol/buffer) = assay type: physicochemical
# E. coli = assay: MIC testing, E. coli; assay type: cell-based
# Description: Susceptibility testing was performed based on Clinical and Laboratory Standards Institute (CLSI) guidelines M07-A11 and M100-S29. All bacterial strains were recovered from long-term storage (−80° C.) and cultured on nutrient agar (NA) at 37° C. under aerobic conditions for approximately 20 h, except E. coli ATCC BAA-2469 that was recovered from long-term storage on nutrient agar before further passaging onto nutrient agar+25 μg/mL imipenem (according to ATCC guidelines). Minimum inhibitory concentration (MIC) assays were performed in BD non cation adjusted Mueller-Hinton broth (MHB) in 96-well flat-bottomed polystyrene plates (Corning #3370). Test articles and comparator antibiotics were prepared in sterile water to a concentration of 5.12 mg/mL. For each antibiotic stock, 2× top concentrations of test compounds and comparators were prepared in the appropriate growth medium and added to well 1 of a 96-well plate. Serial 1:1 dilutions were performed from columns 1-11 (changing tips at each dilution step); column 12 served as a positive (growth) control. A negative (sterility) control was set up in available spare wells. A suspension of each strain was prepared in sterile phosphate-buffered saline (PBS) to a density equivalent to a 0.5 McFarland standard. Bacterial suspensions were then diluted 1:150 in the appropriate medium and used to inoculate assay plates (columns 1 through 11) to provide a starting inoculum of ˜2 to 8×10^5 CFU/mL. […] The MIC was defined as the lowest concentration of test articles resulting in complete inhibition of visible growth.
# MICs were determined using standard methodologies as previously described. […] Time-kill assays were performed against uropathogenic E. coli strains, including the sequence type 131 (ST131) NCTC-13341 isolate.
# E. coli ATCC 25922 [11] = assay type: cell-based
# [12] = Single SC administration tolerability; assay type: in vivo; details: highest dose tested (800 mg/kg), male CD-1 mice
# MRSA infections = details: 150 mg/kg in rats, 100 mg/kg in dogs, 15 mg/kg in humans; cited from earlier work
# [13] = Plasma protein binding, mouse; assay type: in vitro ADME; details: read-out: PPB, % bound, mouse
# [14] = total dose over 9 h 110 mg/kg, q2h SC
# [15] = total dose over 24 h 200 mg/kg, q6h
# [16] = total dose over 24 h 1050 mg/kg
# [17] = total dose over 24 h 1400 mg/kg
# [18] = total dose over 24 h 1272 mg/kg
structure (smiles),measurement,setting,value
"CN[C@H](CC(C)C)C(=O)N[C@H]1C(=O)N[C@@H](CC(N)=O)C(=O)N[C@H]2C(=O)N[C@H]3C(=O)N[C@H](C(=O)N[C@H](C(=O)N[C@H](CCCNC(=N)N)C(N)=O)c4cc(O)cc(O)c4-c4cc3ccc4O)[C@H](O)c3ccc(c(Cl)c3)Oc3cc2cc(c3O[C@@H]2O[C@H](CO)[C@@H](O)[C@H](O)[C@H]2O[C@H]2C[C@](C)(N)[C@H](O)[C@H](C)O2)Oc2ccc(cc2Cl)[C@H]1O [V-r, vancomycin-D-arginine]",CC50,HepG2 cell cytotoxicity,> 750 µM
same,exposure following sub-cutaneous vs IV administration,[1],essentially equivalent
same,CC50,Red blood cell lysis,> 750 µM
same,reduction below stasis,E. coli ATCC 25922 [2]; 440 mg/kg,1.0 log10
same,reduction below stasis,E. coli ATCC 25922 [2]; 880 mg/kg,1.3 log10
same,extrapolated static dose,"E. coli ATCC 25922 [2]; 9 h model, total dose",215 mg/kg
same,Log10 Group Geometric mean (CFU/g) ± SD,E. coli ATCC 25922 [2]; [14],5.87 ± 0.60 Log10 CFU/g
same,Log10 change from vehicle (CFU/g),E. coli ATCC 25922 [2]; [14],−1.24 Log10 CFU/g
same,Log10 Group Geometric mean (CFU/g) ± SD,E. coli ATCC 25922 [2]; total dose over 9 h 440 mg/kg,4.14 ± 0.63 Log10 CFU/g
same,Log10 change from vehicle (CFU/g),E. coli ATCC 25922 [2]; total dose over 9 h 440 mg/kg,−2.97 Log10 CFU/g
same,Log10 Group Geometric mean (CFU/g) ± SD,E. coli ATCC 25922 [2]; total dose over 9 h 880 mg/kg,3.76 ± 0.40 Log10 CFU/g
same,Log10 change from vehicle (CFU/g),E. coli ATCC 25922 [2]; total dose over 9 h 880 mg/kg,−3.35 Log10 CFU/g
same,fraction unbound,[3],0.24
same,Cl,[4]; SC 20 mg/kg,7.8 mL/min/kg
same,Vd,[4]; SC 20 mg/kg,0.59 L/kg
same,Cl,[4]; SC 121 mg/kg,5.4 mL/min/kg
same,Vd,[4]; SC 121 mg/kg,0.60 L/kg
same,elimination kinetics,[4]; SC administration,first-order elimination
same,reduction of burden below stasis,E. coli UTI89; all doses higher than 200 mg/kg,up to 2.7 log10 CFU/g
same,total 24 h dose reducing E. coli burden to pre-treatment (stasis) levels,E. coli UTI89; static dose,250 mg/kg
same,reduction of E. coli burden,E. coli UTI89; thigh muscle model,> 7 log10 CFU/g
same,Log10 Group Geometric mean (CFU/g) ± SD,E. coli UTI89; [15],5.60 ± 2.28 Log10 CFU/g
same,Log10 change from vehicle (CFU/g),E. coli UTI89; [15],−4.11 Log10 CFU/g
same,Log10 Group Geometric mean (CFU/g) ± SD,E. coli UTI89; total dose over 24 h 400 mg/kg,3.27 ± 1.88 Log10 CFU/g
same,Log10 change from vehicle (CFU/g),E. coli UTI89; total dose over 24 h 400 mg/kg,−6.43 Log10 CFU/g
same,Log10 Group Geometric mean (CFU/g) ± SD,E. coli UTI89; total dose over 24 h 700 mg/kg,2.58 ± 0.25 Log10 CFU/g
same,Log10 change from vehicle (CFU/g),E. coli UTI89; total dose over 24 h 700 mg/kg,−7.13 Log10 CFU/g
same,Log10 Group Geometric mean (CFU/g) ± SD,E. coli UTI89; [16],2.08 ± 0.89 Log10 CFU/g
same,Log10 change from vehicle (CFU/g),E. coli UTI89; [16],−7.63 Log10 CFU/g
same,Log10 Group Geometric mean (CFU/g) ± SD,E. coli UTI89; [17],2.68 ± 1.38 Log10 CFU/g
same,Log10 change from vehicle (CFU/g),E. coli UTI89; [17],−7.03 Log10 CFU/g
same,MIC,A. baumannii,8 µg/mL
same,AUC,"[5]; single IV 25 mg/kg, 25 mg/kg",43.27 µg·h/mL
same,AUC,"[5]; single IV 50 mg/kg, 50 mg/kg",103.64 µg·h/mL
same,PK profile,[5]; single IV 1-50 mg/kg,linear
same,CC50,[6],> 100 µM
same,"q12h dose with maximal abrogation of bacterial burden, bladder","[7]; bladder, q12h for 3 days",25 mg/kg
same,required daily 24 h dose to cause maximal reductions in bacterial burden,[7]; kidney,100 mg/kg
same,"q12h dose with maximal abrogation of bacterial burden, kidney","[7]; kidney, q12h for 3 days",50 mg/kg
same,required daily 24 h dose to cause maximal reductions in bacterial burden,[7]; urine and bladder,50 mg/kg
same,"q12h dose with maximal abrogation of bacterial burden, urine","[7]; urine, q12h for 3 days",25 mg/kg
same,antimicrobial potency towards a number of GPB,GPB,remained intact
same,solubility,[8],373 mg/mL
same,AUC,in vivo [9]; 20 mg/kg,42.7 µg·h/mL
same,Cmax,in vivo [9]; 20 mg/kg,20.4 µg/mL
same,half-life,in vivo [9]; 20 mg/kg,0.87 h
same,AUC,in vivo [9]; 121 mg/kg,366 µg·h/mL
same,Cmax,in vivo [9]; 121 mg/kg,98.4 µg/mL
same,half-life,in vivo [9]; 121 mg/kg,1.29 h
same,AUC,in vivo [10],580 µg·h/mL
same,logD,LogD (Octanol/buffer),< -4.01
same,MIC range,E. coli,8 to 16 µg/mL
same,MIC,E. coli; Escherichia coli,8 µg/mL
same,MIC90,E. coli; Escherichia coli,16 µg/mL
same,FOR (at 8 × MIC),E. coli ATCC 25922 [11],<2.32 × 10^−10
same,tolerability of a single SC administration,[12],well tolerated
"CN[C@H](CC(C)C)C(=O)N[C@H]1C(=O)N[C@@H](CC(N)=O)C(=O)N[C@H]2C(=O)N[C@H]3C(=O)N[C@H](C(=O)N[C@H](C(=O)O)c4cc(O)cc(O)c4-c4cc3ccc4O)[C@H](O)c3ccc(c(Cl)c3)Oc3cc2cc(c3O[C@@H]2O[C@H](CO)[C@@H](O)[C@H](O)[C@H]2O[C@H]2C[C@](C)(N)[C@H](O)[C@H](C)O2)Oc2ccc(cc2Cl)[C@H]1O [Vancomycin, vancomycin, reference compound]",CC50,HepG2 cell cytotoxicity,> 750 µM
same,CC50,Red blood cell lysis,> 750 µM
same,impact on E. coli burden,E. coli ATCC 25922 [2]; dose equivalent to the highest dose of V-r,failed to significantly impact E. coli burden
same,Log10 Group Geometric mean (CFU/g) ± SD,E. coli ATCC 25922 [2]; total dose over 9 h 800 mg/kg,6.60 ± 0.66 Log10 CFU/g
same,Log10 change from vehicle (CFU/g),E. coli ATCC 25922 [2]; total dose over 9 h 800 mg/kg,−0.51 Log10 CFU/g
same,fraction unbound,[3],0.5
same,target AUC in the treatment of MRSA infections,MRSA infections,approximately 400 mg·h/l
same,Log10 Group Geometric mean (CFU/g) ± SD,E. coli UTI89; [18],8.48 ± 1.31 Log10 CFU/g
same,Log10 change from vehicle (CFU/g),E. coli UTI89; [18],−1.23 Log10 CFU/g
same,MIC,A. baumannii; read-out: MICs,64 to 256 µg/mL
same,CC50,[6],> 100 µM
same,fraction unbound,[13],0.5
same,solubility,[8],> 50 mg/mL
same,MIC,"E. coli; Escherichia coli, read-out: MICs",64 to 256 µg/mL
